# Where two headings read alike, the source gives them in different places.
# Test system: S. aureus UAMS-1 (ATCC 49230)
# Assay: MIC and MBC determination by standard dilution methods
# Assay type: cell-based, Staphylococcus aureus
# Method: The strain of S. aureus used in this study, UAMS-1, was isolated from a patient with osteomyelitis and deposited at the American Type Culture Collection as strain ATCC 49230. The bacteria were prepared from overnight cultures grown in tryptic soy broth at 37° C. with aeration. Cells were harvested by centrifugation, washed with sterile physiological saline, and resuspended to a final concentration of 2×10^8 CFU/ml (OD of 60% transmittance). Cell suspensions were prepared on the day of surgery and held on ice until implanted.
# Minimum inhibitory concentration (MIC) and minimum bactericidal concentration (MBC) for the two antibiotics tested, tobramycin and cefazolin, were determined by standard dilution methods published by the National Committee for Clinical Laboratory Standards. Briefly, S. aureus cells were grown and diluted to 0.5 McFarland turbidity standard, approximately 2×10^8 cells/ml. The cells were mixed with either of the two antibiotics tested, at concentrations ranging from 2 μg/ml to 64 μg/ml. The following day, the cultures were examined for turbidity to allow determination of MIC values. After this, sample clear cultures were plated to determine the MBC, and colonies counts were done the next day.
# Minimum inhibitory concentration and minimum bactericidal concentration for tobramycin was determined as previously described above, by standard dilution methods published by the National Committee for Clinical Laboratory Standards.
# [1] = Staphylococcus aureus, ATCC49230, read-out: MBC
# [2] = Staphylococcus aureus, ATCC49230, read-out: MIC
Structure (SMILES),MBC [µg/mL],MIC [µg/mL],MBC [1] [µg/mL],MIC [2] [µg/mL]
NC[C@H]1O[C@H](O[C@H]2[C@H](O)[C@@H](O[C@H]3O[C@H](CO)[C@@H](O)[C@H](N)[C@H]3O)[C@H](N)C[C@@H]2N)[C@H](N)C[C@@H]1O [Tobramycin],16,4 to 8,16,4 to 8
Cc1nnc(SCC2=C(C(=O)O)N3C(=O)[C@@H](NC(=O)Cn4cnnn4)[C@H]3SC2)s1 [Cefazolin],,,32,2

# — US8986737B2, “Antibiotic microspheres for treatment and prevention of osteomyelitis and enhancement of bone regrowth” (Wm. Marsh Rice University, priority 2002, dated 2015)
